Laboratory results published in PubChem BioAssay (NCI).
Where “and” joins values, the source holds several entries; their conditions need not be identical. Equal values may be shown once.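 A five-concentration, 48-hour dose response in 96-well plates underlies each endpoint, interpolated linearly between surrounding concentrations. GI50 = concentration required for 50% inhibition of growth. TGI: total growth inhibition.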

What was measured:
Assay in all cases: NCI-60 cell line screen, 48 h
COLO 205 colon = tested on: COLO 205 colon
DU-145 prostate = tested on: DU-145 prostate
EKVX NSCLC = tested on: EKVX NSCLC
HS 578T breast = tested on: HS 578T breast
NCI-H23 lung = tested on: NCI-H23 lung
NCI-H522 lung = tested on: NCI-H522 lung
RXF 393 renal = tested on: RXF 393 renal
SF-268 CNS = tested on: SF-268 CNS
SF-539 CNS = tested on: SF-539 CNS
SK-MEL-2 melanoma = tested on: SK-MEL-2 melanoma
SNB-75 CNS = tested on: SNB-75 CNS
UACC-257 melanoma = tested on: UACC-257 melanoma

Cc1ccc(S(=O)(=O)NNC(=S)Nc2cccc3ccccc23)cc1
TGI (COLO 205 colon): > 100 µM | TGI (DU-145 prostate): > 100 µM | TGI (EKVX NSCLC): > 100 µM | TGI (HS 578T breast): > 100 µM | TGI (NCI-H23 lung): > 100 µM | TGI (NCI-H522 lung): 46.6 µM | TGI (RXF 393 renal): > 100 µM | TGI (SF-268 CNS): > 100 µM | TGI (SF-539 CNS): > 100 µM | TGI (SK-MEL-2 melanoma): > 100 µM | TGI (SNB-75 CNS): 77.5 µM | TGI (UACC-257 melanoma): 52.1 µM

COc1cc2cc(C(=O)N3CC(CCl)c4ccc(NCCN)cc43)[nH]c2c(OC)c1OC (stereo unspecified)
TGI (COLO 205 colon): 2.55 µM | TGI (DU-145 prostate): 6.2 µM | TGI (EKVX NSCLC): 6.1 µM | TGI (HS 578T breast): 3.37 µM | TGI (NCI-H23 lung): 1.23 µM | TGI (NCI-H522 lung): 0.542 µM | TGI (RXF 393 renal): 0.327 µM | TGI (SF-268 CNS): 1.29 µM | TGI (SF-539 CNS): 1.41 µM | TGI (SK-MEL-2 melanoma): 0.408 µM | TGI (SNB-75 CNS): 0.571 µM | TGI (UACC-257 melanoma): 0.637 µM

C/C=C(/C)C(=O)O[C@H]1C(C)=C[C@]23C(=O)[C@@H](C=C(COC(C)=O)[C@@H](O)[C@]12O)[C@H]1[C@@H](C[C@H]3C)[C@@]1(C)OC(=O)/C(C)=C\C
TGI (COLO 205 colon): 3.8 µM | TGI (DU-145 prostate): 6.21 µM | TGI (EKVX NSCLC): 6.38 µM | TGI (HS 578T breast): 5.28 µM | TGI (NCI-H23 lung): 5.19 µM | TGI (NCI-H522 lung): 6.07 µM | TGI (RXF 393 renal): 5.25 µM | TGI (SF-268 CNS): 4.73 µM | TGI (SF-539 CNS): 5.88 µM | TGI (SK-MEL-2 melanoma): 6.01 µM | TGI (SNB-75 CNS): 4.53 µM | TGI (UACC-257 melanoma): 10.4 µM

Cn1c2nc3ccccc3c-2cc2ccccc21
TGI (COLO 205 colon): > 35.9 µM and 17.2 µM | TGI (DU-145 prostate): > 100 µM | TGI (EKVX NSCLC): 15.6 µM and 33.9 µM | GI50 (HS 578T breast): 4.54 µM and 17.7 µM | TGI (HS 578T breast): 16.4 µM and 61.3 µM | GI50 (NCI-H23 lung): 3.35 µM and 10.6 µM | TGI (NCI-H23 lung): 11.5 µM and 23.2 µM | GI50 (NCI-H522 lung): 2.07 µM and 6.03 µM | TGI (NCI-H522 lung): 10.3 µM and 23.7 µM | GI50 (RXF 393 renal): 3.45 µM and 7.68 µM | TGI (RXF 393 renal): 14.8 µM and 20.1 µM | GI50 (SF-268 CNS): 3.95 µM and 8.47 µM | TGI (SF-268 CNS): 17 µM and 40.3 µM | TGI (SF-539 CNS): 16 µM and 17.5 µM | GI50 (SK-MEL-2 melanoma): 3.94 µM and 11.1 µM | TGI (SK-MEL-2 melanoma): 17.2 µM and 24 µM | GI50 (SNB-75 CNS): 3.22 µM and 13.4 µM | TGI (SNB-75 CNS): 12.7 µM and 39.1 µM | GI50 (UACC-257 melanoma): 3.91 µM and 8.6 µM | TGI (UACC-257 melanoma): 35.5 µM and 44 µM
